Like-named read-outs stand apart in the source and are kept apart here. Numbered stars: 1 amine (or outer) side, 2 acyl side, 3 side chain; on linkers, the order of the positions; unused ones are H or OH. Square brackets hold non-standard residues; d marks the D form. Peptide text beside a SMILES is read from it. * marks the point of attachment. Propanoyl(3-indol-3-yl) = O=C(CCc1c[nH]c2ccccc12)*; Propanoyl(3-(4-F-phenyl)) = O=C(CCc1ccc(F)cc1)*; Acryloyl(3-(pyridin-3-yl)) = O=C(C=Cc1cccnc1)*; Propanoyl(3-(4-MeO-Ph)) = COc1ccc(CCC(=O)*)cc1; Trp(5-F) = N[C@@H](Cc1c[nH]c2ccc(F)cc12)C(=O)O; Propanoyl(3-(4-Cl-Ph)) = O=C(CCc1ccc(Cl)cc1)*; X7 = CC1(C)CN(CC(=O)*)C(=O)C(c2ccccc2)=N1; 1Nal = N[C@@H](Cc1cccc2ccccc12)C(=O)O; d1Nal = N[C@H](Cc1cccc2ccccc12)C(=O)O; dLys(iPr) = CC(C)NCCCC[C@@H](N)C(=O)O; Lys(iPr) = CC(C)NCCCC[C@H](N)C(=O)O; NMeY = CN[C@@H](Cc1ccc(O)cc1)C(=O)O; dBta = N[C@H](Cc1csc2ccccc12)C(=O)O; Hydrocinnamoyl = O=C(CCc1ccccc1)*; Benzoyl(4-F) = O=C(c1ccc(F)cc1)*; X13 = O=C(CCc1ccc(C(F)(F)F)cc1)*; Cha = N[C@@H](CC1CCCCC1)C(=O)O; Nicotinoyl = O=C(c1cccnc1)*; Morpholide = C1CN(*)CCO1; Orn = NCCC[C@H](N)C(=O)O; NHcHex = C1CCC(N*)CC1; CO = O=C([*:1])[*:2]; Sar = CNCC(=O)O
Target: T1, LHRH receptors (Rattus norvegicus, UniProt P30969)
T1 construct: Pituitary membranes containing LHRH receptors are prepared in batches from quick-frozen rat pituitaries; tissue Hilltop Labs; host or cells: rat pituitary membranes
T1 sequence (P30969 1-327): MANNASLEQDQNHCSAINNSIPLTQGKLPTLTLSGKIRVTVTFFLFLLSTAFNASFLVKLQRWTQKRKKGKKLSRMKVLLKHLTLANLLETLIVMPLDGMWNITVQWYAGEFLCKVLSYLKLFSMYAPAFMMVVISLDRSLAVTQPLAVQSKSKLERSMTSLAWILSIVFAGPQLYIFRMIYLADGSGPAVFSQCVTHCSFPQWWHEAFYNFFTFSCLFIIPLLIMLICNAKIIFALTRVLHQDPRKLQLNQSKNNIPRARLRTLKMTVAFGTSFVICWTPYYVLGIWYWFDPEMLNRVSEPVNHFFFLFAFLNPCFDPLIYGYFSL
Assay: Receptor Binding (radioligand receptor binding assay)
Conditions: rat pituitary membranes, 2 hours at 4° C., read-out: Receptor Binding pkI (converted)

[1] = table 3, radioiodinated [D-Leu^6 -des Gly^10 ]-LHRH ethyl amide 50 pM

| Ki [1] | Ki (table 4, radioligand 50 pM) | Compound |
| --- | --- | --- |
| 20.4 nM |  | CCNC(=O)[C@@H]1CCCN1C(=O)[C@H](CCCNC(=N)N)NC(=O)[C@H](CC(C)C)NC(=O)[C@@H](CCCCNC(C)C)NC(=O)[C@H](Cc1ccc(O)cc1)NC(=O)[C@H](CO)NC(=O)CCc1c[nH]c2ccccc12 [Compound 54, N-(3-(3-Indole)propionyl)-Ser-Tyr-D-Lys-(N-epsilon-isp)-Leu-Arg-Pro-NHEt] ({Propanoyl(3-indol-3-yl)}-SY[dLys(iPr)]LRP-NHEt) |
|  | 0.832 nM | CC(=O)NCCC[C@H](NC(=O)c1ccc(F)cc1)C(=O)N[C@H](Cc1cccc2ccccc12)C(=O)N[C@@H](CO)C(=O)N(C)[C@@H](Cc1ccc(O)cc1)C(=O)N[C@H](CCCCNC(=O)c1cccnc1)C(=O)N[C@@H](CC(C)C)C(=O)N[C@@H](CCCCNC(C)C)C(=O)N1CCC[C@H]1C(=O)N[C@H](C)C(N)=O [Compound 218, N-alpha-(4-Fluorobenzoyl)-Orn(N-delta-acetyl)-D-1-Nal-Ser-NMeTyr-D-Lys(N-epsilon-nicotinyl)-Leu-Lys(N-epsilon-isopropyl)-Pro-D-AlaNH2] ({Benzoyl(4-F)}-[Orn](Ac)[d1Nal]S[NMeY][dK](Nicotinoyl)L[Lys(iPr)]P[dA]-NH2) |
| 204 nM |  | CCNC(=O)[C@@H]1CCCN1C(=O)[C@H](CCCNC(=N)N)NC(=O)[C@H](CC(C)C)NC(=O)[C@@H](CCCNC(=N)N)NC(=O)[C@H](Cc1ccc(O)cc1)NC(=O)[C@H](CO)NC(=O)CCc1c[nH]c2ccccc12 [Compound 35, (4-9)[N-(3-(3-Indole)propionyl)-Ser^4 -D-Arg^6 -Pro^9 -NHEt]LHRH] ({Propanoyl(3-indol-3-yl)}-SY[dR]LRP-NHEt) |
| 15.1 nM |  | CCNC(=O)[C@@H]1CCCN1C(=O)[C@H](CCCNC(=N)N)NC(=O)[C@H](CC(C)C)NC(=O)[C@@H](CCCCN)NC(=O)[C@H](Cc1ccc(O)cc1)NC(=O)[C@H](CO)NC(=O)CCc1c[nH]c2ccccc12 [Compound 55, N-(3-(3-Indole)propionyl)-Ser-Tyr-D-Lys-Leu-Arg-Pro-NHEt] ({Propanoyl(3-indol-3-yl)}-SY[dK]LRP-NHEt) |
|  | 0.17 nM | CC(C)C[C@H](NC(=O)[C@@H](Cc1c[nH]c2ccccc12)NC(=O)[C@H](Cc1ccc(O)cc1)N(C)C(=O)[C@H](CO)NC(=O)[C@@H](Cc1c[nH]c2ccccc12)NC(=O)[C@@H](Cc1cccc2ccccc12)NC(=O)N1CCOCC1)C(=O)N[C@@H](CCCNC(=N)N)C(=O)N1CCC[C@H]1C(=O)N[C@H](C)C(N)=O [Compound 220, (2-10)[N-(alpha-Morpholinocarbonyl)-D-1-Nal^2 -D-Trp^3,6 -NMeTyr^5 -D-Ala^10]LHRH] ({Morpholide-CO}-[d1Nal][dW]S[NMeY][dW]LRP[dA]-NH2) |
| 0.269 nM |  | CCNC(=O)[C@@H]1CCCN1C(=O)[C@H](CCCNC(=N)N)NC(=O)[C@H](CC(C)C)NC(=O)[C@@H](Cc1c[nH]c2ccccc12)NC(=O)[C@H](Cc1ccc(O)cc1)NC(=O)[C@H](CO)NC(=O)[C@H](Cc1c[nH]c2ccccc12)NC(=O)CCc1ccccc1 [Compound 65, (3-9)[N-(3-Phenylpropionyl)-Trp^3 -D-Trp^6 -Pro^9 -NHEt]LHRH] (Hydrocinnamoyl-WSY[dW]LRP-NHEt) |
|  | 0.0151 nM | CC(C)C[C@H](NC(=O)[C@@H](CCCCNC(=O)c1cccnc1)NC(=O)[C@H](Cc1ccc(O)cc1)N(C)C(=O)[C@H](CO)NC(=O)[C@@H](Cc1cccc2ccccc12)NC(=O)CCc1ccc(F)cc1)C(=O)N[C@@H](CCCCNC(C)C)C(=O)N1CCC[C@H]1C(=O)N(C)CC(N)=O [Compound 255, N-(3-(4-Fluorophenyl)propionyl)-D-1-Nal-Ser-NMeTyr-D-Lys(N-epsilon-nicotinyl)-Leu-Lys(N-epsilon-isopropyl)-Pro-SarNH2] ({Propanoyl(3-(4-F-phenyl))}-[d1Nal]S[NMeY][dK](Nicotinoyl)L[Lys(iPr)]P[Sar]-NH2) |
| 3.16 nM |  | CCNC(=O)[C@@H]1CCCN1C(=O)[C@H](CCCNC(=N)N)NC(=O)[C@H](CC(C)C)NC(=O)[C@@H](Cc1c[nH]c2ccccc12)NC(=O)[C@H](CCCCN)NC(=O)[C@H](CO)NC(=O)[C@H](Cc1c[nH]c2ccccc12)NC(=O)[C@H](Cc1c[nH]cn1)NC(=O)CN1CC(C)(C)N=C(c2ccccc2)C1=O [Compound 71, N-(5,6-Dihydro-5,5-dimethyl-2-oxo-3-phenyl-1-(2H)-pyrazineacetyl)-His-Trp-Ser-Lys-D-Trp-Leu-Arg-ProNHEt] (X7-HWSK[dW]LRP-NHEt) |
| 646 nM |  | CCNC(=O)[C@@H]1CCCN1C(=O)[C@H](CCCNC(=N)N)NC(=O)[C@H](CC(C)C)NC(=O)[C@@H](Cc1c[nH]c2ccccc12)NC(=O)[C@H](Cc1ccc(O)cc1)NC(=O)[C@H](CO)NC(=O)C=Cc1cccnc1 [Compound 43, (4-9)[N-(3-(3-Pyridyl)acryloyl)-Ser^4 -D-Trp^6 -Pro^9 -NHEt]LHRH] ({Acryloyl(3-(pyridin-3-yl))}-SY[dW]LRP-NHEt) |
|  | 0.00933 nM | CC(C)C[C@H](NC(=O)[C@@H](CCCCNC(C)C)NC(=O)[C@H](Cc1ccc(O)cc1)N(C)C(=O)[C@H](CO)NC(=O)[C@@H](Cc1csc2ccccc12)NC(=O)CCc1ccc(F)cc1)C(=O)N[C@@H](CCCNC(=N)N)C(=O)N1CCC[C@H]1C(=O)N[C@H](C)C(N)=O [Compound 198, (3-10)[N-(3-(4-Fluorophenyl)propionyl)-D-3-Bal^3 -NMeTyr^5 -D-Lys^6 (N-epsilon-isopropyl)-D-Ala^10]LHRH] ({Propanoyl(3-(4-F-phenyl))}-[dBta]S[NMeY][dLys(iPr)]LRP[dA]-NH2) |
| 0.263 nM |  | CCNC(=O)[C@@H]1CCCN1C(=O)[C@H](CCCNC(=N)N)NC(=O)[C@H](CC(C)C)NC(=O)[C@@H](Cc1c[nH]c2ccccc12)NC(=O)[C@H](Cc1ccc(O)cc1)NC(=O)[C@H](CO)NC(=O)[C@H](Cc1cccc2ccccc12)NC(=O)N1CCOCC1 [Compound 137, N-(N-alpha-Morpholinocarbonyl)-1-Nal-Ser-Tyr-D-Trp-Leu -Arg-ProNHEt] ({Morpholide-CO}-[1Nal]SY[dW]LRP-NHEt) |
| 10.7 nM |  | CCNC(=O)[C@@H]1CCCN1C(=O)[C@H](CCCNC(=N)N)NC(=O)[C@H](CC(C)C)NC(=O)[C@@H](Cc1c[nH]c2ccccc12)NC(=O)[C@H](Cc1ccc(O)cc1)NC(=O)[C@H](CO)NC(=O)CCc1ccc(OC)cc1 [Compound 78, (4-9)[N-(3-(4-Methoxyphenyl)propionyl) -Ser^4 -D-Trp^6 -Pro^9 NHEt]LHRH] ({Propanoyl(3-(4-MeO-Ph))}-SY[dW]LRP-NHEt) |
| 0.251 nM |  | CCNC(=O)[C@@H]1CCCN1C(=O)[C@H](CCCNC(=N)N)NC(=O)[C@H](CC(C)C)NC(=O)[C@@H](Cc1c[nH]c2ccccc12)NC(=O)[C@H](Cc1ccc(O)cc1)NC(=O)[C@H](CO)NC(=O)[C@H](Cc1c[nH]c2ccccc12)NC(=O)[C@H](Cc1ccccc1)NC(=O)NC1CCCCC1 [Compound 125, (2-9)[N-(N-alpha-Cyclohexylaminocarbonyl)-Phe^2 -D-Trp^6 -Pro^9 NHEt]LHRH] ({NHcHex-CO}-FWSY[dW]LRP-NHEt) |
|  | 0.0316 nM | CCNC(=O)[C@@H]1CCCN1C(=O)[C@H](CCCN=C(N)N)NC(=O)[C@H](CC(C)C)NC(=O)[C@@H](CCCCNC(=O)c1cccnc1)NC(=O)[C@H](Cc1ccc(O)cc1)N(C)C(=O)[C@H](CO)NC(=O)[C@@H](Cc1c[nH]c2ccccc12)NC(=O)CCc1ccc(Cl)cc1 [Compound 154, (3-9)[N-(3-(4-Chlorophenyl)propionyl) -D-Trp^3 -NMeTyr^5 -DLys^6 (N-epsilon-nicotinyl)-Pro ^9 NHEt]LHRH] ({Propanoyl(3-(4-Cl-Ph))}-[dW]S[NMeY][dK](Nicotinoyl)LRP-NHEt) |
|  | 0.0155 nM | C[C@@H](NC(=O)[C@@H]1CCCN1C(=O)[C@H](CCCNC(=N)N)NC(=O)[C@H](CC1CCCCC1)NC(=O)[C@@H](CCCCN)NC(=O)[C@H](Cc1ccc(O)cc1)N(C)C(=O)[C@H](CO)NC(=O)[C@@H](Cc1cccc2ccccc12)NC(=O)CCc1ccc(F)cc1)C(N)=O [Compound 185, (3-10)[N-(3-(4-Fluorophenyl)propionyl)-D-1-Nal^3 -NMeTyr^5 -D-Lys^6 -Cha^7 -D-Ala^10]LHRH] ({Propanoyl(3-(4-F-phenyl))}-[d1Nal]S[NMeY][dK][Cha]RP[dA]-NH2) |
|  | 0.00437 nM | COc1ccc(C[C@H](NC(=O)[C@H](CO)NC(=O)[C@@H](Cc2cccc3ccccc23)NC(=O)CCc2ccc(F)cc2)C(=O)N[C@H](CCCCNC(=O)c2cccnc2)C(=O)N[C@@H](CC(C)C)C(=O)N[C@@H](CCCCNC(C)C)C(=O)N2CCC[C@H]2C(=O)N[C@H](C)C(N)=O)cc1 [Compound 200, (3-10)[N-(3-(4-Fluorophenyl)propionyl)-D-1-Nal^3 -Tyr^5 (OMe)-D-Lys^6 (N-epsilon-nicotinyl)-Lys^8 (N-epsilon-isopropyl)-D-Ala^10]LHRH] ({Propanoyl(3-(4-F-phenyl))}-[d1Nal]SY(Me)[dK](Nicotinoyl)L[Lys(iPr)]P[dA]-NH2) |
| 1.95 nM |  | CCNC(=O)[C@@H]1CCCN1C(=O)[C@H](CCCNC(=N)N)NC(=O)[C@H](CC(C)C)NC(=O)[C@@H](Cc1c[nH]c2ccccc12)NC(=O)[C@H](Cc1ccc(O)cc1)NC(=O)[C@H](CO)NC(=O)CCc1ccc(C(F)(F)F)cc1 [Compound 79, (4-9)[N-(3-(4-Trifluoromethylphenyl)propionyl)-Ser^4 -D-Trp^6 -Pro^9 NHEt]LHRH] (X13-SY[dW]LRP-NHEt) |
|  | 0.0724 nM | CCNC(=O)[C@@H]1CCCN1C(=O)[C@H](CCCNC(=N)N)NC(=O)[C@H](CC(C)C)NC(=O)[C@@H](Cc1c[nH]c2ccccc12)NC(=O)[C@H](Cc1ccc(O)cc1)NC(=O)[C@H](CO)NC(=O)[C@H](Cc1c[nH]c2ccc(F)cc12)NC(=O)CCc1ccc(F)cc1 [Compound 142, (3-9)[N-(3-(4-Fluorophenyl)propionyl) -5-F-Trp^3 -D-Trp^6 -Pro^9 NHEt]LHRH] ({Propanoyl(3-(4-F-phenyl))}-[Trp(5-F)]SY[dW]LRP-NHEt) |
